Results from patent US9163007B2, “5-substituted indazoles as kinase inhibitors” (AbbVie Inc., priority 2007, dated 2015).
Several values for one entry are separate records, joined by “and”; a condition that tells them apart may be missing. Equal entries are not always repeated.

Key:
rats [1] = experiment: Sciatic nerve ligation model of neuropathic pain (Bennett); format: in vivo, rat; conditions: i.p. or p.o., doses ranging from 1-150 mg/kg
Description: Sciatic Nerve Ligation Model of Neuropathic Pain.
As previously described in detail by Bennett and Xie (Bennett G. J.; Xie Y-K. A peripheral mononeuropathy in rat that produces disorders of pain sensation like those seen in man. Pain 1988, 33, 87-107), in anesthetized rats, a 1.5 cm incision was made 0.5 cm below the pelvis and the biceps femoris and the gluteous superficialis (right side) were separated. The sciatic nerve was exposed, isolated, and four loose ligatures (5-0 chromic catgut) with 1 mm spacing were placed around it. The rats were allowed to recover and then placed in a cage with soft bedding for 14 days before behavioral testing for mechanical allodynia as described above. In addition, animals were also tested for cold allodynia by dipping their hind paw in a cold-water bath (4.5° C.) and determining the paw withdrawal latency.

IL-13 = experiment: Murine asthma model: IL-13 measurement in bronchoalveolar lavage fluid; format: in vivo, mouse
Procedure: (§1) Animals were sensitized to OVA on day 0 and 7 with an i.p. injection of 8 μg OVA in 2 mg alum. On days 14 and 16, animals received intra-nasal challenge of 0.3 μg OVA in 50 μl sterile PBS. Animals were dosed i.p. with a representative compound of formula (I), Example 179, (dissolved with 0.5% HMPC, 0.02% Tween 80 in water) twice per day at doses of 3, 10, and 30 mg/kg/dose beginning the afternoon of day 13. The final dose of compound was administered 30 minutes prior to measurement of airway hyperresponsiveness (AHR). Dexamethasone was administered orally once a day on days 13-17 at a dose of 3 mg/kg. All endpoints were analyzed on day 17, 24 hours after the second OVA challenge. AHR was assessed using unconscious restrained whole body plethysmography. Briefly, a surgical plane of anesthesia was induced with an i.p. injection of ketamine and xylazine. A tracheal canula was surgically inserted between the third and fourth tracheal rings. Spontaneous breathing was prevented by an intravenous (i.v.) jugular vein injection of pancuronium bromide. Animals were placed in a whole body plethysmograph (Buxco) and mechanically ventilated with 0.2 mL room air at 150 breaths per minute with a volume-controlled ventilator (Harvard Apparatus). Pressure in the lung and flow within the plethysmograph were measured using transducers, and lung resistance was calculated as pressure/flow using Biosystem Xa software. Baseline resistance as well as resistance following challenge with methacholine (3, 10 or 30 mg/mL) that was delivered with an inline ultrasonic-nebulizer were measured. Upon completion of pulmonary function testing, the lungs were lavaged 4 times with 0.5 mL sterile PBS. Lavage fluid was analyzed for IL-13, AMCase, Muc5ac and cellular infiltrates. The efficacy of the test compound was tested at doses of 3, 10 and 30 mg/kg b.i.d. (6, 20, 60 mg/kg/day). […]
IL-13 concentrations in the bronchoalveolar lavage fluid (BAL) were measured by ELISA (R & D Systems) according to manufacturer's instructions.

Balb/c mice = experiment: Murine model of acute asthma: airway hyperresponsiveness (lung resistance); format: in vivo, mouse; conditions: OVA-challenged mice, i.p. twice per day, tested 3, 10, 30 mg/kg; printed 'doses ranging between 1 and 100 mg/kg'; OVA 6.90, PBS 4.65
Description: Murine Asthma Model of Acute Asthma
Female Balb/c mice were purchased from Taconic and housed at Abbott Bioresearch Center. Animals were utilized at 8-12 weeks of age. All protocols were approved by the Institutional Animal Care and Use Committee (IACUC). Dexamethasone (Dex), and ovalbumin (OVA) were purchased from Sigma. Endotoxin was removed from ovalbumin using DetoxiGel (Pierce) according to manufacturer's protocol and the final material contained less than 0.1 EU/mg protein. Alum Imject was purchased from Pierce.
Animals were sensitized to OVA on day 0 and 7 with an i.p. injection of 8 μg OVA in 2 mg alum. On days 14 and 16, animals received intra-nasal challenge of 0.3 μg OVA in 50 μl sterile PBS. […] All endpoints were analyzed on day 17, 24 hours after the second OVA challenge. AHR was assessed using unconscious restrained whole body plethysmography. […] Pressure in the lung and flow within the plethysmograph were measured using transducers, and lung resistance was calculated as pressure/flow using Biosystem Xa software. Baseline resistance as well as resistance following challenge with methacholine (3, 10 or 30 mg/mL) that was delivered with an inline ultrasonic-nebulizer were measured. […] Lavage fluid was analyzed for IL-13, AMCase, Muc5ac and cellular infiltrates. […]

rats [2] = experiment: Spinal nerve (L5/L6) ligation model of neuropathic pain (Chung); format: in vivo, rat; conditions: i.p. or p.o., doses ranging from 1-150 mg/kg
Description: Spinal Nerve (L5/L6) Ligation Model of Neuropathic Pain.
As previously described in detail by Kim and Chung (Kim S. H.; Chung J. M. An experimental model for peripheral neuropathy produced by segmental spinal nerve ligation in the rat. Pain 1992, 50, 355-363), a 1.5 cm incision was made dorsal to the lumbosacral plexus. In anesthetized rats, the paraspinal muscles (left side) were separated from the spinous processes, the L5 and L6 spinal nerves isolated, and tightly ligated with 3-0 silk threads. Following hemostasis, the wound was sutured and coated with antibiotic ointment. The rats were allowed to recover and then placed in a cage with soft bedding for 14 days before behavioral testing for mechanical allodynia.

[3] = tested on: Acidic mammalian chitinase (AMCase); experiment: Murine asthma model: AMCase measurement in BAL fluid; format: in vivo, mouse; conditions: 30 mg/kg group, p<0.01
Procedure: as §1, with “Spontaneous breathing was prevented by an intravenous (i.v.) jugular vein injection of pancuronium bromide. Animals were placed in a whole body plethysmograph (Buxco) and mechanically ventilated with 0.2 mL room air at 150 breaths per minute with a volume-controlled ventilator (Harvard Apparatus).” left out, “Upon completion of pulmonary function testing, the lungs were lavaged 4 times with 0.5 mL sterile PBS.” left out, “infiltrates.” for “infiltrates. The efficacy of the test compound was tested at doses of 3, 10 and 30 mg/kg b.i.d. (6, 20, 60 mg/kg/day).”

MUC5AC = experiment: Murine asthma model: MUC5AC measurement in BAL; format: in vivo, mouse; set-up: dose or concentration left out as unconfirmed
Procedure: Animals were sensitized to OVA on day 0 and 7 with an i.p. injection of 8 μg OVA in 2 mg alum. On days 14 and 16, animals received intra-nasal challenge of 0.3 μg OVA in 50 μl sterile PBS. […] The final dose of compound was administered 30 minutes prior to measurement of airway hyperresponsiveness (AHR). Dexamethasone was administered orally once a day on days 13-17 at a dose of 3 mg/kg. All endpoints were analyzed on day 17, 24 hours after the second OVA challenge. AHR was assessed using unconscious restrained whole body plethysmography. Briefly, a surgical plane of anesthesia was induced with an i.p. injection of ketamine and xylazine. A tracheal canula was surgically inserted between the third and fourth tracheal rings. […] Pressure in the lung and flow within the plethysmograph were measured using transducers, and lung resistance was calculated as pressure/flow using Biosystem Xa software. Baseline resistance as well as resistance following challenge with methacholine (3, 10 or 30 mg/mL) that was delivered with an inline ultrasonic-nebulizer were measured. […] Lavage fluid was analyzed for IL-13, AMCase, Muc5ac and cellular infiltrates. […]
Concentrations of the mucin gene MUC5AC were quantitated by ELISA format. […] The reaction was stopped using 1M H2SO4 and then read in a spectrophotometer at OD 450 nm.

SMILES: O=C(N[C@H](CCO)c1ccccc1)c1cc(-c2ccc3[nH]ncc3c2)on1 [Example 179, N-[(1R)-3-hydroxy-1-phenylpropyl]-5-(1H-indazol-5-yl)isoxazole-3-carboxamide]
- inhibition of tactile allodynia (rats [1]): greater than 30%
- inhibition of IL-13 induction in BAL fluid (IL-13; 3 mg/kg dose group): no significant inhibition
- inhibition of IL-13 induction in BAL fluid (IL-13; 10 mg/kg dose group): no significant inhibition
- inhibition of IL-13 induction in BAL fluid (IL-13; 30 mg/kg dose, p<0.05): 60%
- methacholine-induced airways resistance (Balb/c mice): 4.55 cm H2O/mL/sec and 4.77 cm H2O/mL/sec
- inhibition of tactile allodynia (rats [2]): greater than 30%
- inhibition of AMCase activity induction in BAL fluid [3]: 45%
- reduction of MUC5AC levels (MUC5AC): 35%
